In patent publication US11655240B1, “Crystal form of compound and fumaric acid, pharmaceutical composition and method for treating coronavirus-induced diseases” (priority 2022, dated 2023):

Legend:
Assay type in all cases: physicochemical
[1] = Particle size distribution by laser particle size analyzer Mastersizer 3000; settings: dispersed in n-heptane
Method: The particle size distribution of the APIs prepared in the examples of the present disclosure was determined by using a laser particle size analyzer Mastersizer 3000 (Malvern Panalytical, UK). Specifically, about 20 mg of the API (for example, API 5) prepared in the example of the present disclosure was taken, dispersed in 8 mL of n-heptane, sonicated for 10 seconds, added to a sample dispersion unit until the shading degree was in the range from 10% to 20%, and then measured. The stirring speed of the dispersion chamber was 2000 rpm, and the duration was 10 s.

[2] = Thermogravimetric analysis (TGA); settings: 10° C./min
Method: A thermogravimetric analyzer TA Discovery 55 (TA, US) was used. 2 mg to 5 mg of the sample was placed in an equilibrated open aluminum sample pan and automatically weighed in a TGA oven. The sample was heated to the final temperature at a rate of 10° C./min with a nitrogen purge rate of 60 mL/min at the sample and 40 mL/min at the balance.

[3] = Dynamic vapor sorption (DVS) analysis
Method: Dynamic vapor sorption analysis was performed using DVS Intrinsic (SMS, UK). The analysis adopted a gradient mode, the humidity change was 50%, 95%, 0%, and 50% in sequence, the humidity change of each gradient in the range from 0% to 90% was 10%, and the end point of the gradient was determined by dm/dt method. The end point of the gradient was determined in response to the dm/dt being less than 0.002% and maintained for 10 minutes.

[4] = Stability of crystal form A, influencing factor and accelerated stability experiments
From the text: In addition, the inventors also investigated the stability of the crystal form A under conditions of the influencing factor experiment and the accelerated stability experiment, and the results is as follows: […]

| SMILES | Particle size D50 of API [1] | Particle size D90 of API [1] | further results |
| --- | --- | --- | --- |
| Cn1cnc(Cn2c(=O)[nH]/c(=N\c3cc4cn(C)nc4cc3Cl)n(Cc3cc(F)c(F)cc3F)c2=O)n1 [API 17] | 35.4 μm | 65.7 μm |  |
| Cn1cnc(Cn2c(=O)[nH]/c(=N\c3cc4cn(C)nc4cc3Cl)n(Cc3cc(F)c(F)cc3F)c2=O)n1 [API 7] | 22.3 μm | 45.5 μm |  |
| Cn1cnc(Cn2c(=O)[nH]/c(=N\c3cc4cn(C)nc4cc3Cl)n(Cc3cc(F)c(F)cc3F)c2=O)n1 [API 10] | 22.1 μm | 43.4 μm |  |
| Cn1cnc(Cn2c(=O)[nH]/c(=N\c3cc4cn(C)nc4cc3Cl)n(Cc3cc(F)c(F)cc3F)c2=O)n1 [API 15] | 10.2 μm | 15.8 μm |  |
| Cn1cnc(Cn2c(=O)[nH]/c(=N\c3cc4cn(C)nc4cc3Cl)n(Cc3cc(F)c(F)cc3F)c2=O)n1 [API 16] | 38.3 μm | 70.5 μm |  |
| Cn1cnc(Cn2c(=O)[nH]/c(=N\c3cc4cn(C)nc4cc3Cl)n(Cc3cc(F)c(F)cc3F)c2=O)n1 [API 6] | 8.9 μm | 15.6 μm |  |
| Cn1cnc(Cn2c(=O)[nH]/c(=N\c3cc4cn(C)nc4cc3Cl)n(Cc3cc(F)c(F)cc3F)c2=O)n1 [API 4] | 23.5 μm | 46.7 μm |  |
| Cn1cnc(Cn2c(=O)[nH]/c(=N\c3cc4cn(C)nc4cc3Cl)n(Cc3cc(F)c(F)cc3F)c2=O)n1 [API 14] | 20.5 μm | 41.3 μm |  |
| Cn1cnc(Cn2c(=O)[nH]/c(=N\c3cc4cn(C)nc4cc3Cl)n(Cc3cc(F)c(F)cc3F)c2=O)n1 [API 8] | 20.1 μm | 40.7 μm |  |
| Cn1cnc(Cn2c(=O)[nH]/c(=N\c3cc4cn(C)nc4cc3Cl)n(Cc3cc(F)c(F)cc3F)c2=O)n1 [API 3] | 8.4 μm | 10.2 μm |  |
| Cn1cnc(Cn2c(=O)[nH]/c(=N\c3cc4cn(C)nc4cc3Cl)n(Cc3cc(F)c(F)cc3F)c2=O)n1 [API 12] | 8.3 μm | 10.9 μm |  |
| Cn1cnc(Cn2c(=O)[nH]/c(=N\c3cc4cn(C)nc4cc3Cl)n(Cc3cc(F)c(F)cc3F)c2=O)n1 [API 5] | 18.6 μm | 34.2 μm |  |
| Cn1cnc(Cn2c(=O)[nH]/c(=N\c3cc4cn(C)nc4cc3Cl)n(Cc3cc(F)c(F)cc3F)c2=O)n1 [API 1] | 28.9 μm | 58.6 μm |  |
| Cn1cnc(Cn2c(=O)[nH]/c(=N\c3cc4cn(C)nc4cc3Cl)n(Cc3cc(F)c(F)cc3F)c2=O)n1 [API 2] | 20.3 μm | 40.1 μm |  |
| Cn1cnc(Cn2c(=O)[nH]/c(=N\c3cc4cn(C)nc4cc3Cl)n(Cc3cc(F)c(F)cc3F)c2=O)n1 [API 9] | 8.8 μm | 10.4 μm |  |
| Cn1cnc(Cn2c(=O)[nH]/c(=N\c3cc4cn(C)nc4cc3Cl)n(Cc3cc(F)c(F)cc3F)c2=O)n1 [crystal form A, (6E)-6-[(6-chloro-2-methyl-2H-indazol-5-yl)imino]-3-[(1-methyl-1H-1,2,4-triazol-3-yl)methyl]-1-(2,4,5-trifluorobenzyl)-1,3,5-triazine-2,4-dione fumaric acid] |  |  | TGA decomposition temperature ([2]; nitrogen): higher than 240 °C; TGA weight loss ([2]; heated to 150° C.): basically no weight loss; Hygroscopicity ([3]; DVS): almost no hygroscopicity; Crystal form stability, XRPD before and after DVS experiment ([3]; FIG. 3): very stable, is not prone to crystalline transformation; DVS weight loss ([3]; at 0% RH): 0.02%; DVS weight gain ([3]; at 80% RH): 0.06%; Stability (appearance, purity, dissociation, crystalline transformation) ([4]; 40° C. and 75% relative humidity (RH), within 2 months): stable; Stability (appearance and purity) ([4]; high temperature, high humidity, and light irradiation, within 30 days): stable |
| Cn1cnc(Cn2c(=O)[nH]/c(=N\c3cc4cn(C)nc4cc3Cl)n(Cc3cc(F)c(F)cc3F)c2=O)n1 [API 11] | 20.6 μm | 42.7 μm |  |
| Cn1cnc(Cn2c(=O)[nH]/c(=N\c3cc4cn(C)nc4cc3Cl)n(Cc3cc(F)c(F)cc3F)c2=O)n1 [API 13] | 22.4 μm | 48.9 μm |  |
